Experimental data from patent publication US6592911B2, “(−)-Olivil as antioxidant which is obtained from a new natural source namely Stereospermum personatum” (Council of Scientific and Industrial Research, priority 2001, dated 2003).

Assay: In vitro free radical (DPPH) scavenging antioxidant potency
Format: biochemical
Details: for 50% Radical scavenging concentration of compounds, Concentration: DPPH radical 500 μM in ethanol, tris-HCl buffer pH 7.4, 45 minutes in dark, absorbency at 517 nm, triplicate
Protocol: In Vitro Evaluation of Free Radical Scavenging Antioxidant Potency
Antioxidant activity of the compounds was tested for its capacity/potency to scavenge most widely used free radical, 1,1-diphenyl-2-picryl hyrazyl radical (DPPH). […] 200 μl of test compounds were reconstituted to 1 ml in tris-HCl buffer (pH 7.4). Equal volume of 500 μM of DPPH radical dissolved in ethanol was reacted with this. After incubation for 45 minutes in dark, the absorbency at 517 nm was recorded. Percent radical scavenging activity was calculated accordingly. All the readings were taken in triplicate.

With Cc1c(C)c2c(c(C)c1O)CCC(C)(CCCC(C)CCCC(C)CCCC(C)C)O2 (stereo not drawn) [DL α-Tocopherol, reference compound] the “50% Radical scavenging concentration of compounds, Concentration” value was 47.80 µg/mL.
For COc1cc(C[C@]2(O)CO[C@@H](c3ccc(O)c(OC)c3)[C@@H]2CO)ccc1O [(−)-Olivil], the “50% Radical scavenging concentration of compounds, Concentration” value was 22.24 µg/mL and the “antioxidant activity compared with reference drugs Probucol and alpha-tocopherol” value (comparison in words) was “better than the above mentioned reference drugs”.
